Reference: patent US8133884B2, “Compounds for the treatment of hepatitis C” (priority 2008, dated 2012)
pEC50, pIC50: −log10 of the molar value.

Experiments:
[1] = target: T1, HCV NS5B (Hepatitis C virus genotype 1b, UniProt Q9WMX2); experiment: Modified HCV NS5B RdRp enzyme assay (preincubation protocol); assay type: biochemical
T1 construct: The protein was expressed with an 18 amino acid C-terminal truncation to enhance the solubility; made in house; host or cells: E. coli BL21(DE3)
Method: The cDNA encoding the NS5B protein of HCV, genotype 1b, was cloned into the pET21a expression vector. The protein was expressed with an 18 amino acid C-terminal truncation to enhance the solubility. The E. coli competent cell line BL21(DE3) was used for expression of the protein. Cultures were grown at 37° C. for ˜4 hours until the cultures reached an optical density of 2.0 at 600 nm. The cultures were cooled to 20° C. and induced with 1 mM IPTG. Fresh ampicillin was added to a final concentration of 50 μg/ml and the cells were grown overnight at 20° C.
Cell pellets (3 L) were lysed for purification to yield 15-24 mgs of purified NS5B. The lysis buffer consisted of 20 mM Tris-HCl, pH 7.4, 500 mM NaCl, 0.5% triton X-100, 1 mM DTT, 1 mM EDTA, 20% glycerol, 0.5 mg/ml lysozyme, 10 mM MgCl2, 15 ug/ml deoxyribonuclease I, and Complete TM protease inhibitor tablets (Roche). After addition of the lysis buffer, frozen cell pellets were resuspended using a tissue homogenizer. To reduce the viscosity of the sample, aliquots of the lysate were sonicated on ice using a microtip attached to a Branson sonicator. The sonicated lysate was centrifuged at 100,000×g for 1 hr at 4° C. and filtered through a 0.2 μm filter unit (Corning).
The protein was purified using three sequential chromatography steps: Heparin sepharose CL-6B, polyU sepharose 4B, and […] SP sepharose (Pharmacia). The chromatography buffers were identical to the lysis buffer but contained no lysozyme, deoxyribonuclease I, MgCl2 or protease inhibitor and the NaCl concentration of the buffer was adjusted according to the requirements for charging the protein onto the column. Each column was eluted with a NaCl gradient which varied in length from 5-50 column volumes depending on the column type. After the final chromatography step, the resulting purity of the enzyme is >90% based on SDS-PAGE analysis. The enzyme was aliquoted and stored at −80° C.
HCV RdRp genotype 1b assays were run in a final volume of 60 μl in 96 well plates (Costar 3912). The assay buffer is composed of 20 mM Hepes, pH 7.5, 2.5 mM KCl, 2.5 mM MgCl2, 1 mM DTT, 1.6 U RNAse inhibitor (Promega N2515), 0.1 mg/ml BSA (Promega R3961), and 2% glycerol. All compounds were serially diluted (3-fold) in DMSO and diluted further in water such that the final concentration of DMSO in the assay was 2%. HCV RdRp genotype 1b enzyme was used at a final concentration of 28 nM. A polyA template was used at 6 nM, and a biotinylated oligo-dT12 primer was used at 180 nM final concentration. Template was obtained commercially (Amersham 27-4110). Biotinylated primer was prepared by Sigma Genosys. 3H-UTP was used at 0.6 μCi (0.29 μM total UTP). Reactions were initiated by the addition of enzyme, incubated at 30° C. for 60 min, and stopped by adding 25 μl of 50 mM EDTA containing SPA beads (4 μg/μl, Amersham RPNQ 0007). Plates were read on a Packard TOPCOUNT® NXT after >1 hr incubation at room temperature.
A modified enzyme assay was performed essentially as described for the standard enzyme assay except for the following: The biotinylated oligo dT12 primer was precaptured on streptavidin-coated SPA beads by mixing primer and beads in assay buffer and incubating at room temperature for one hour. Unbound primer was removed after centrifugation. The primer-bound beads were resuspended in 20 mM Hepes buffer, pH 7.5 and used in the assay at final concentrations of 20 nM primer and 0.67 μg/μl beads. Order of addition in the assay: enzyme (14 nM) was added to diluted compound followed by the addition of a mixture of template (0.2 nM), 3H-UTP (0.6 μCi, 0.29 μM), and primer-bound beads, to initiate the reaction; concentrations given are final. Reactions were allowed to proceed for 4 hours at 30° C.
IC50 values for compounds were determined using seven different [I]. IC50 values were calculated from the inhibition using the formula y=A+((B−A)/(1+((C/x)^D))).

[2] = system: HCV replicon; experiment: HCV replicon assay (FRET or luciferase reporter); assay type: cell-based; conditions: Hepatitis C virus, one of the methods described
From the text: To perform the HCV FRET screening assay, 96-well cell culture plates were used, The FRET peptide (Anaspec, Inc.) (Taliani et al., Anal. Biochem., 240:60-67 (1996)) contains a fluorescence donor, EDANS, near one end of the peptide and an acceptor, DABCYL, near the other end. The fluorescence of the peptide is quenched by […] resonance energy transfer (RET) between the donor and the acceptor, but as the NS3 protease cleaves the peptide the products are released from RET quenching and the fluorescence of the donor becomes apparent. The assay reagent was made as follows: 5× cell Luciferase cell culture lysis reagent from Promega (#E153A) diluted to 1× with dH2O, NaCl added to 150 mM final, the FRET peptide diluted to 20 μM final from a 2 mM stock.
To prepare plates, HCV replicon cells, with or without a Renilla luciferase reporter gene, were trypsinized and placed into each well of a 96-well plate with titrated test compounds added in columns 3 through 12; columns 1 and 2 contained a control compound (HCV protease inhibitor), and the bottom row contained cells without compound. The plates were then placed in a CO2 incubator at 37° C.
Subsequent to addition of the test compounds described above (FRET Assay Preparation), at various times the plate was removed and Alamar blue solution (Trek Diagnostics, #00-100) was added per well as a measure of cellular toxicity. After reading in a CYTOFLUOR® 4000 instrument (PE Biosystems), plates were rinsed with PBS and then used for FRET assay by the addition of 30 ul of the FRET peptide assay reagent described above (FRET Assay Preparation) per well. The plate was then placed into the CYTOFLUOR® 4000 instrument which had been set to 340 excite/490 emission, automatic mode for 20 cycles and the plate read in a kinetic mode. Typically, the signal to noise using an endpoint analysis after the reads was at least three-fold. Alternatively, after Alamar blue reading, plates were rinsed with PBS, 50 ul of DMEM (high glucose) without phenol red was added and plates were then used for luciferase assay using the Promega DUAL-GLO® Luciferase Assay System.
Compound analysis was determined by quantification of the relative HCV replicon inhibition and the relative cytotoxicity values. To calculate cytoxicity values, the average Alamar Blue fluorescence signals from the control wells were set as 100% non-toxic. The individual signals in each of the compound test wells were then divided by the average control signal and multiplied by 100% to determine […]. To calculate the HCV replicon inhibition values, an average background value was obtained from the two wells containing the highest amount of HCV protease inhibitor at the end of the assay period. These numbers were similar to those obtained from naïve Huh-7 cells.
The background numbers were then subtracted from the average signal obtained from the control wells and this number was used as 100% activity. The individual signals in each of the compound test wells were then divided by the averaged control values after background subtraction and multiplied by 100% to determine percent activity. EC50 values for a protease inhibitor titration were calculated as the concentration which caused a 50% reduction in FRET or luciferase activity. The two numbers generated for the compound plate, percent cytoxicity and percent activity were used to determine compounds of interest for further analysis.
The HCV replicon luciferase assay was developed to monitor the inhibitory effects of compounds described in the disclosure on HCV viral replication. Utilization of a replicon luciferase reporter assay was first described by Krieger et al (Krieger, N. et al., J. Virology, 75(10):4614-4624 (2001)). HUH-7 cells, constitutively expressing the HCV replicon, were grown in Dulbecco's Modified Eagle Media (DMEM) (Gibco-BRL) containing 10% Fetal calf serum (FCS) (Sigma) and 1 mg/ml G418 (Gibco-BRL). […]

T1 sequence (Q9WMX2 2420-2992): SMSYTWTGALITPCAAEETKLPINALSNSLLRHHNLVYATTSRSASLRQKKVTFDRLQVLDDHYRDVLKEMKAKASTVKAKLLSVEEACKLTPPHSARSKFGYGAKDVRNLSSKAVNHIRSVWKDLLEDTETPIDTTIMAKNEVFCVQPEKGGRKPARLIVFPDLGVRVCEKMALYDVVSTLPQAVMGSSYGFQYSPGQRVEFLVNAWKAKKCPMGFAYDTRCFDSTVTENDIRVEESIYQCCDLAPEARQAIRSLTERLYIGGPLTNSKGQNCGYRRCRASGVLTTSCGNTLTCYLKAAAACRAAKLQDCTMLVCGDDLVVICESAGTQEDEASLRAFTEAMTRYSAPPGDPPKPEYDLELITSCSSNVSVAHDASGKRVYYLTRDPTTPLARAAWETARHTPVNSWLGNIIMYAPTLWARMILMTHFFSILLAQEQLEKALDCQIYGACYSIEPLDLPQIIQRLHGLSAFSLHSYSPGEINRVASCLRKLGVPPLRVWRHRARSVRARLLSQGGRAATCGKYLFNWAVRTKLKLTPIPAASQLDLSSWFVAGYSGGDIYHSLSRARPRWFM

Structure (SMILES) | pIC50 ([1]; class symbol) | pIC50 ([1]; exact value) | pEC50 ([2]; class symbol) | pEC50 ([2]; exact value)
COc1ccc2c(c1)C=C(c1c(C(=O)N3C4CCC3CN(C)C4)cnn1C1CCC1)Cn1c-2c(C2CCCCC2)c2ccc(C(=O)NS(=O)(=O)CC(C)C)cc21 | 6.30 to 8.77 | 8.48 | 6.30 to 8.77 | 8.09
COc1ccc2c(c1)C=C(c1c(C(=O)N3C[C@@H](C)O[C@@H](C)C3)cnn1-c1ccnc(C)c1)Cn1c-2c(C2CCCCC2)c2ccc(C(=O)NS(=O)(=O)C(C)C)cc21 | 6.30 to 8.77 | – | 6.30 to 8.77 | –
COc1ccc2c(c1)C=C(c1c(C(=O)N3C[C@@H](C)O[C@@H](C)C3)cnn1-c1cccnc1)Cn1c-2c(C2CCCCC2)c2ccc(C(=O)NS(=O)(=O)C(C)C)cc21 | 6.30 to 8.77 | – | 6.30 to 8.77 | –
COc1ccc2c(c1)C=C(c1c(C(=O)N3C[C@@H](C)O[C@@H](C)C3)cnn1-c1nc3ccccc3[nH]1)Cn1c-2c(C2CCCCC2)c2ccc(C(=O)NS(=O)(=O)C(C)C)cc21 | 6.30 to 8.77 | 8.05 | 6.30 to 8.77 | 6.82
COc1ccc2c(c1)C=C(c1c(C(=O)N3C[C@@H](C)O[C@@H](C)C3)cnn1-c1cnccn1)Cn1c-2c(C2CCCCC2)c2ccc(C(=O)NS(=O)(=O)C(C)C)cc21 | 6.30 to 8.77 | – | 6.30 to 8.77 | –
COc1ccc2c(c1)C=C(c1c(C(=O)N3CCOCC3)noc1C1CC1)Cn1c-2c(C2CCCCC2)c2ccc(C(=O)NS(=O)(=O)N(C)C)cc21 | 6.30 to 8.77 | – | 6.30 to 8.77 | –
COc1ccc2c(c1)C=C(c1c(C(=O)N3C[C@@H](C)O[C@@H](C)C3)noc1C1CC1)Cn1c-2c(C2CCCCC2)c2ccc(C(=O)NS(=O)(=O)N(C)C)cc21 | 6.30 to 8.77 | – | 6.30 to 8.77 | –
COC[C@@H]1CN(C(=O)c2cnn(C3CCC3)c2C2=Cc3cc(OC)ccc3-c3c(C4CCCCC4)c4ccc(C(=O)NS(=O)(=O)C(C)C)cc4n3C2)CCO1 | 6.30 to 8.77 | – | 6.30 to 8.77 | –
COc1ccc2c(c1)C=C(c1c(C(=O)N3CC4CCC(C3)O4)cnn1C1CCC1)Cn1c-2c(C2CCCCC2)c2ccc(C(=O)NS(=O)(=O)C(C)C)cc21 | 6.30 to 8.77 | 8.41 | 6.30 to 8.77 | 8.00
COc1ccc2c(c1)C=C(c1c(C(=O)N3CCN(C)CC3)cnn1C1CCC1)Cn1c-2c(C2CCCCC2)c2ccc(C(=O)NS(=O)(=O)C(C)C)cc21 | 6.30 to 8.77 | – | 6.30 to 8.77 | –
COc1ccc2c(c1)C=C(c1c(C(=O)N3C[C@@H]4C[C@H]3CO4)cnn1C1CCC1)Cn1c-2c(C2CCCCC2)c2ccc(C(=O)NS(=O)(=O)C(C)C)cc21 | 6.30 to 8.77 | 8.27 | 6.30 to 8.77 | 7.52
COc1ccc2c(c1)C=C(c1c(C(=O)N3C[C@@H]4C[C@H]3CN4CC3CC3)cnn1C1CCC1)Cn1c-2c(C2CCCCC2)c2ccc(C(=O)NS(=O)(=O)C(C)C)cc21 | 6.30 to 8.77 | – | 6.30 to 8.77 | –
COc1ccc2c(c1)C=C(c1c(C(=O)N3CCN4CCC[C@H]4C3)cnn1C1CCC1)Cn1c-2c(C2CCCCC2)c2ccc(C(=O)NS(=O)(=O)C(C)C)cc21 | 6.30 to 8.77 | – | 6.30 to 8.77 | –
COc1ccc2c(c1)C=C(c1c(C(=O)N3C[C@]4(C)CN(C)C[C@](C)(C3)C4)cnn1C1CCC1)Cn1c-2c(C2CCCCC2)c2ccc(C(=O)NS(=O)(=O)C(C)C)cc21 | 6.30 to 8.77 | – | 6.30 to 8.77 | –
COc1ccc2c(c1)C=C(c1c(C(=O)N3CCCOCC3)cnn1C1CCC1)Cn1c-2c(C2CCCCC2)c2ccc(C(=O)NS(=O)(=O)C(C)C)cc21 | 6.30 to 8.77 | 8.27 | 6.30 to 8.77 | 8.12
COc1ccc2c(c1)C=C(c1c(C(=O)N3C[C@@H](C)O[C@@H](C)C3)ncn1C1CC1)Cn1c-2c(C2CCCCC2)c2ccc(C(=O)NS(=O)(=O)C(C)C)cc21 | 6.30 to 8.77 | – | 6.30 to 8.77 | –
COc1ccc2c(c1)C=C(c1c(C(=O)N3CCOCC3)ncn1C1CC1)Cn1c-2c(C2CCCCC2)c2ccc(C(=O)NS(=O)(=O)C(C)C)cc21 | 6.30 to 8.77 | – | 6.30 to 8.77 | –
COc1ccc2c(c1)C=C(c1c(C(=O)N3C4CCCC3COC4)cnn1C1CCC1)Cn1c-2c(C2CCCCC2)c2ccc(C(=O)NS(=O)(=O)C(C)C)cc21 | 6.30 to 8.77 | – | 6.30 to 8.77 | –
COc1ccc2c(c1)C=C(c1c(C(=O)N3C[C@@H](C)O[C@@H](C)C3)ncn1C1CCC1)Cn1c-2c(C2CCCCC2)c2ccc(C(=O)NS(=O)(=O)C(C)C)cc21 | 6.30 to 8.77 | – | 6.30 to 8.77 | –
COc1ccc2c(c1)C=C(c1c(C(=O)N3CCOCC3)ncn1C1CCC1)Cn1c-2c(C2CCCCC2)c2ccc(C(=O)NS(=O)(=O)C(C)C)cc21 | 6.30 to 8.77 | 8.01 | 6.30 to 8.77 | 7.15
COc1ccc2c(c1)C=C(c1c(C(=O)N3CCN(C4CCCC4)CC3)cnn1C1CCC1)Cn1c-2c(C2CCCCC2)c2ccc(C(=O)NS(=O)(=O)C(C)C)cc21 | 6.30 to 8.77 | – | 6.30 to 8.77 | –
COc1ccc2c(c1)C=C(c1c(C(=O)N3C[C@@H](C)O[C@@H](C)C3)c(C)nn1C1CCC1)Cn1c-2c(C2CCCCC2)c2ccc(C(=O)NS(=O)(=O)C(C)C)cc21 | 6.30 to 8.77 | 8.19 | 6.30 to 8.77 | 8.00
